Results: patent US10184933B2, “Compositions, systems and methods for gene expression noise drug screening and uses thereof” (priority 2013, dated 2019)
Counter-ions that a name gives are not always drawn. Like-named read-outs stand apart in the source and are kept apart here.

System: HIV-1 LTR promoter
Assay type: cell-based
[1] = Pharmakon 1600 library, 10 uM, 24 hours, FIG. 10
[2] = Pharmakon 1600 library, 10 uM, 24 hours, FIG. 12

CN(Cc1cnc2nc(N)nc(N)c2n1)c1ccc(C(=O)N[C@@H](CCC(=O)O)C(=O)O)cc1 (racemic) [methotrexate(+/−)]
identified as variability enhancer (VE) in noise screen [1]: variability enhancers

COC(=O)C1=CCCN(C)C1 [Arecoline hydrobromide]
identified as variability enhancer (VE) in noise screen [1]: variability enhancers

COc1ccc(Cc2nccc3cc(OC)c(OC)cc23)cc1OC [Papaverine hydrochloride]
identified as variability suppressor (VS) in noise screen [2]: variability suppressors

CC(=O)O[C@H]1C(=O)[C@@]2(C)[C@H]([C@H](OC(=O)c3ccccc3)[C@]3(O)C[C@H](OC(=O)[C@H](O)[C@@H](NC(=O)c4ccccc4)c4ccccc4)C(C)=C1C3(C)C)[C@]1(OC(C)=O)CO[C@@H]1C[C@@H]2O [Taxol]
identified as variability enhancer (VE) in noise screen [1]: variability enhancers

S=c1nc[nH]c2nc[nH]c12 [V9, mercaptopurine]
identified as variability enhancer (VE) in noise screen [1]: variability enhancers

N=C(N)NCCN1CCCCCCC1 [V21, guanethidine sulfate]
identified as variability enhancer (VE) in noise screen: variability enhancers

CC(C)(C#N)c1cc(Cn2cncn2)cc(C(C)(C)C#N)c1 [V68, anastrozole]
identified as variability enhancer (VE) in noise screen [1]: variability enhancers

CS(=O)(=O)OCCCCOS(C)(=O)=O [V69, busulfan]
identified as variability enhancer (VE) in noise screen [1]: variability enhancers

Nc1nc2[nH]cc(CCc3ccc(C(=O)N[C@@H](CCC(=O)O)C(=O)O)cc3)c2c(=O)[nH]1 [V74, pemetrexed]
identified as variability enhancer (VE) in noise screen [1]: variability enhancers

Nc1ncnc2c1ncn2[C@@H]1O[C@H](COP(=O)(O)O)[C@@H](O)[C@H]1O [adenosine phosphate]
identified as variability suppressor (VS) in noise screen [2]: variability suppressors

CCCSc1ccc2nc(NC(=O)OC)[nH]c2c1 [albendazole]
identified as variability enhancer (VE) in noise screen: variability enhancers

Nc1c2ccccc2nc2ccccc12 [aminacrine]
identified as variability enhancer (VE) in noise screen [1]: variability enhancers

Cl.N=C(N)NCCC[C@H](N)C(=O)O [arginine hydrochloride]
identified as variability enhancer (VE) in noise screen [1]: variability enhancers

CN(C)CCCOc1nn(Cc2ccccc2)c2ccccc12 [benzydamine hydrochloride]
identified as variability suppressor (VS) in noise screen [2]: variability suppressors

Cc1ccc2c(Br)cc(Br)c(OC(=O)c3ccccc3)c2n1 [broxaldine]
identified as variability suppressor (VS) in noise screen [2]: variability suppressors

C[N+](C)(C)CC(O)CC(=O)[O-].Cl (stereo not drawn) [carnitine hydrochloride]
identified as variability enhancer (VE) in noise screen [1]: variability enhancers

Nc1nc(Cl)nc2c1ncn2[C@@H]1O[C@H](CO)[C@@H](O)[C@@H]1F [clofarabine]
identified as variability enhancer (VE) in noise screen [1]: variability enhancers

C[C@@H]1C[C@@H]([C@H](O)CC2CC(=O)NC(=O)C2)C(=O)[C@@H](C)C1 [cycloheximide]
identified as variability suppressor (VS) in noise screen [2]: variability suppressors

Nc1ccn([C@@H]2O[C@H](CO)[C@@H](O)[C@@H]2O)c(=O)n1 [cytarabine, (β-D-arabinofuranosyl)cytosine]
noise deviation of VM hit in the screen (10 uM, 24 hours): +5 σ

COP(=O)(OC)OC=C(Cl)Cl [dichlorvos]
identified as variability suppressor (VS) in noise screen [2]: variability suppressors

C[C@H]1O[C@@H](O[C@H]2[C@@H](O)C[C@H](O[C@H]3[C@@H](O)C[C@H](O[C@H]4CC[C@@]5(C)[C@H](CC[C@@H]6[C@@H]5CC[C@]5(C)[C@@H](C7=CC(=O)OC7)CC[C@]65O)C4)O[C@@H]3C)O[C@@H]2C)C[C@H](O)[C@@H]1O [digitoxin]
identified as variability enhancer (VE) in noise screen [1]: variability enhancers

C[C@H]1O[C@@H](O[C@H]2[C@@H](O)C[C@H](O[C@H]3[C@@H](O)C[C@H](O[C@H]4CC[C@@]5(C)[C@H](CC[C@@H]6[C@@H]5C[C@@H](O)[C@]5(C)[C@@H](C7=CC(=O)OC7)CC[C@]65O)C4)O[C@@H]3C)O[C@@H]2C)C[C@H](O)[C@@H]1O [digoxin]
identified as variability enhancer (VE) in noise screen: variability enhancers

CC(CCc1ccc(O)cc1)NCCc1ccc(O)c(O)c1 (stereo not drawn) [dobutamine hydrochloride]
identified as variability enhancer (VE) in noise screen [1]: variability enhancers

CCN1CC(CCN2CCOCC2)C(c2ccccc2)(c2ccccc2)C1=O (stereo not drawn) [doxapram hydrochloride]
identified as variability enhancer (VE) in noise screen [1]: variability enhancers

C[C@@H](O)CN(CCN(C[C@@H](C)O)C[C@@H](C)O)C[C@@H](C)O [editol]
identified as variability enhancer (VE) in noise screen [1]: variability enhancers

CN1C[C@H](C(=O)N[C@]2(C)O[C@@]3(O)[C@@H]4CCCN4C(=O)[C@H](Cc4ccccc4)N3C2=O)C=C2c3cccc4[nH]cc(c34)C[C@H]21 [ergotamine tartrate]
identified as variability suppressor (VS) in noise screen [2]: variability suppressors

O=C1OC2(c3ccccc31)c1cc(I)c(O)c(I)c1Oc1c2cc(I)c(O)c1I [erythrosine sodium]
identified as variability enhancer (VE) in noise screen [1]: variability enhancers

COC(=O)Nc1nc2ccc(Sc3ccccc3)cc2[nH]1 [fenbendazole]
identified as variability enhancer (VE) in noise screen [1]: variability enhancers

N#Cc1nn(-c2c(Cl)cc(C(F)(F)F)cc2Cl)c(N)c1[S+]([O-])C(F)(F)F (stereo not drawn) [fipmnil, fipronil]
identified as variability suppressor (VS) in noise screen [2]: variability suppressors

COC1=CC(=O)C[C@@H](C)[C@]12Oc1c(Cl)c(OC)cc(OC)c1C2=O [griseofulvin]
identified as variability enhancer (VE) in noise screen [1]: variability enhancers

CCCCCC(=O)O[C@]1(C(C)=O)CC[C@H]2[C@@H]3CCC4=CC(=O)CC[C@]4(C)[C@H]3CC[C@@]21C [hydroxyprogesterone caproate]
identified as variability suppressor (VS) in noise screen [2]: variability suppressors

CCc1c2c(nc3ccc(OC(=O)N4CCC(N5CCCCC5)CC4)cc13)-c1cc3c(c(=O)n1C2)COC(=O)[C@]3(O)CC [irinotecan hydrochloride]
identified as variability enhancer (VE) in noise screen [1]: variability enhancers

O=C(O)c1nn(Cc2ccc(Cl)cc2Cl)c2ccccc12 [lonidamine]
identified as variability enhancer (VE) in noise screen [1]: variability enhancers

CNCCCC12CCC(c3ccccc31)c1ccccc12 [maprotiline hydrochloride]
identified as variability suppressor (VS) in noise screen: variability suppressors

N[C@@H](Cc1ccc(N(CCCl)CCCl)cc1)C(=O)O [melphalan]
identified as variability enhancer (VE) in noise screen [1]: variability enhancers

CO[C@@]12[C@H](COC(N)=O)C3=C(C(=O)C(C)=C(N)C3=O)N1C[C@@H]1N[C@@H]12 [mitomycin c]
identified as variability enhancer (VE) in noise screen [1]: variability enhancers

CCN(CC)C(=O)c1cccnc1 [nikethamide]
identified as variability enhancer (VE) in noise screen [1]: variability enhancers

C[C@@H]1O[C@@H](O[C@H]2C[C@@H](O)[C@]3(CO)[C@H]4[C@H](O)C[C@]5(C)[C@@H](C6=CC(=O)OC6)CC[C@]5(O)[C@@H]4CC[C@]3(O)C2)[C@H](O)[C@H](O)[C@H]1O [ouabain]
identified as variability enhancer (VE) in noise screen [1]: variability enhancers

COC(=O)Nc1nc2ccc([S+]([O-])c3ccccc3)cc2[nH]1 (stereo not drawn) [oxfendazole]
identified as variability enhancer (VE) in noise screen [1]: variability enhancers

[H]/N=C(/N)N/C(=N/[H])NCCc1ccccc1 [phenformin hydrochloride]
identified as variability suppressor (VS) in noise screen: variability suppressors

c1ccc2c(c1)Nc1ccccc1S2 [phenothiazine]
identified as variability suppressor (VS) in noise screen [2]: variability suppressors

CC(=O)[O-].[Hg+][c]1ccccc1 [phenylmercuric acetate]
identified as variability enhancer (VE) in noise screen: variability enhancers
